In general, IC50 refers to the concentration needed to halve the response being measured. A higher IC50 goes with weaker potency in that assay. Broadly, the melting point is the temperature, or range, at which the solid turns liquid.

4 molecules from publication PMC9822133, “Design, Synthesis and Antiproliferative Evaluation of Bis-Indole Derivatives with a Phenyl Linker: Focus on Autophagy” (Molecules, 2022) can be followed below.

For one data set, the system named is BLM. Description: MTT screening assay, BLM. The format is cell-based. Conditions: Homo sapiens, 72 h incubation. Background: Tetrazolium dyes change colour on reduction, which living cells bring about.
In a further data set the test system is Caco-2. In words: MTT screening assay, Caco-2. The format is cell-based. The note with it: Homo sapiens, 72 h incubation. From the text: (§1) The ability of newly synthesized indole phytoalexins to suppress cell proliferation was screened in vitro on eight cancer cell lines including human colorectal carcinoma (Caco-2 and HCT116), human cervical cancer (HeLa), human breast adenocarcinoma (MCF-7, MDA-MB-231), human alveolar adenocarcinoma (A549) and human leukemic T cell lymphoma (Jurkat), and two non-cancer cell lines (MCF-10A, Cos-7).
(§2) The cell lines used for this study were Caco-2 (human colorectal adenocarcinoma cell line, American Type Culture Collection, Manassas, VA, USA (ATCC)), HCT116 (human colorectal carcinoma cells European Collection of Authenticated Cell Cultures, Salisbury, UK (ECACC)), HeLa (human cervical tumor cells, ECACC), MCF-7 (human breast tumor cells, ECACC), MDA-MB-231 (human breast tumor cells, ATCC), A549 (human lung carcinoma cells, ATCC), BLM (human melanoma lung metastases, a gift from prof. K. Smetana, Institute of Anatomy, Charles University in Prague), Jurkat (human leukemia cell line, ECACC), Cos-7 (immortalized monkey kidney fibroblasts, ATCC) and MCF-10A (human mammary epithelial cells, ATCC). Caco-2, MCF-7, BLM, Cos-7 and A549 cells were cultured in Dulbecco’s Modified Eagle’s Medium (DMEM) with high glucose and sodium pyruvate (GE Healthcare, Piscataway, NJ, USA); HCT116 lines, HeLa, MDA-MB-231 and Jurkat were cultured in RPMI-1640 medium; and MCF10A cells were cultured in high glucose DMEM/F12 (Dulbecco’s Modified Eagle’s Medium F12). The media were enriched with 10% fetal bovine serum (FBS) and a 1% solution of a mixture of antibiotics and antimycotics 1× HyClone™ (GE Healthcare, Chicago, IL, USA). DMEM/F12 medium was supplemented with epidermal growth factor (EGF) (20 ng/mL final), hydrocortisone (0.5 μg/mL final) and insulin (10 μg/mL final) (Sigma-Aldrich Chemie, Steinheim, Germany). The cells were placed in an incubator at 37 °C with humidified air containing 5% CO2.
(§3) The MTT assay is a colorimetric method used to quantify the metabolic activity of cells. MTT (3-(4,5-di-methylthiazol-2-yl)2,5-diphenyltetrazolium bromide) (Sigma-Aldrich Chemie, Steinheim, Germany) is reduced by oxidoreductases in the cytosol of cells to light-absorbing formazan, the presence of which can be measured spectrophotometrically and determines the half-maximal inhibitory concentration (IC50). A549 cells were seeded in […] culture plates at a density of 5 × 10^3 per well. […]
(§4) We also incubated the cells with chloroquine at concentrations of 5–20 µM, which was added 1 h before the addition of the test substance, and cisplatin at concentrations of 3–10 µM. […] After 24 h, the absorbance was measured at a wavelength of 540 nm using an automated Cytation™ 3 Cell Imaging Multi-Mode Reader (Biotek, Winooski, VT, USA). […]

The next data set concerns A549. In words: MTT screening assay, A549. The format is cell-based. Conditions: Homo sapiens, 72 h incubation.
From the text: as §1, §2, §3, §4

Another data set deals with HeLa. Description: MTT screening assay, HeLa. The format is cell-based. The note with it: Homo sapiens, 72 h incubation.
From the text: as §1, §2, §3, §4

Another data set relates to MCF10A. In words: MTT screening assay, MCF10A non-cancer cells. The format is cell-based, human. Conditions: Homo sapiens, MCF-10A; 72 h incubation, MTT, non-cancer cells.
From the text: as §1, §2
The MTT assay is a colorimetric method used to quantify the metabolic activity of cells. MTT (3-(4,5-di-methylthiazol-2-yl)2,5-diphenyltetrazolium bromide) (Sigma-Aldrich Chemie, Steinheim, Germany) is reduced by oxidoreductases in the cytosol of cells to light-absorbing formazan, the presence of which can be measured spectrophotometrically and determines the half-maximal inhibitory concentration (IC50). A549 cells were seeded in […] culture plates at a density of 5 × 10^3 per well. After 24 h of cultivation, the tested substance 49 was added in concentrations of 10, 50 and 100 µM.
We also incubated the cells with chloroquine at concentrations of 5–20 µM, which was added 1 h before the addition of the test substance, and cisplatin at concentrations of 3–10 µM. Cisplatin was added 24 h after the addition of 49. After 72 h of incubation, 10 µL of MTT (5 mg/mL) was added to each well. After 4 h, formazan crystals formed in the wells, which were dissolved in 100 uL of 10% SDS (sodium dodecyl sulfate). After 24 h, the absorbance was measured at a wavelength of 540 nm using an automated Cytation™ 3 Cell Imaging Multi-Mode Reader (Biotek, Winooski, VT, USA). These experiments were performed in three independent replicates.

The next data set has as its system MCF-7. In words: MTT screening assay, MCF-7. Format: cell-based. The note with it: Homo sapiens, MCF7, 72 h incubation.
From the text: as §1, §2, §3, §4

The subject of a further data set is HCT116. Description: MTT screening assay, HCT116. Format: cell-based. Conditions: Homo sapiens, HCT-116, 72 h incubation.
From the text: as §1, §2, §3, §4

The subject of a further data set is Cos-7. In words: MTT screening assay, Cos-7 non-cancer cells. Format: cell-based, monkey. The note with it: Primates, 72 h incubation.
From the text: as §1, §2, §3, §4

The next data set has as its system Jurkat. In words: MTT screening assay, Jurkat. The format is cell-based. The note with it: Homo sapiens, 72 h incubation.
From the text: as §1, §2, §3, §4

The test system of a further data set is MDA-MB-231. Description: MTT screening assay, MDA-MB-231. The note with it: Homo sapiens, 72 h incubation. Format: cell-based.
From the text: as §1, §2, §3, §4

Data set [1] deals with A549 human lung cancer cells. Description: MTT assay with cis-platin alone or combined with compound 49. Format: cell-based. Conditions: A549, CisPt alone 10.0 μM, 72 h.
From the text: Furthermore, the depletion of GSH has been documented to potentiate the effect of anticancer drugs. Glutathione plays an important role in cisPt detoxification, so depletion of GSH is believed to potentiate the cisPt-induced DNA damage and increase the chemosensitivity of cancer cells to this anticancer drug. Due to the GSH-depleting effect of compound 49, we performed a set of experiments with cis-platin (CisPt) alone or in combination with compound 49 (Figure 9). […] Simultaneous treatments with CisPt (10 μM) and 20 μM of compound 49 caused a 59% reduction in cell growth.
The MTT assay is a colorimetric method used to quantify the metabolic activity of cells. MTT (3-(4,5-di-methylthiazol-2-yl)2,5-diphenyltetrazolium bromide) (Sigma-Aldrich Chemie, Steinheim, Germany) is reduced by oxidoreductases in the cytosol of cells to light-absorbing formazan, the presence of which can be measured spectrophotometrically and determines the half-maximal inhibitory concentration (IC50). […]
as §4

The structures appear in SMILES notation.

With `CO[C@@H]1N(C(=O)OC(C)(C)C)c2ccccc2[C@]12CN=C(Nc1ccc(NC3=NC[C@]4(S3)c3ccccc3N(C(=O)OC(C)(C)C)[C@@H]4OC)cc1)S2` [Compound 52a, N,N′-bis[1-(tert-Butoxycarbonyl)-2-methoxy-spiro{indoline-3,5′-[4′,5′]dihydrothiazol-2′-yl}]benzene-1,4-diamine], the half-inhibitory concentration (IC50) amounted to 7.4 ± 2.5 µM with BLM; 6.1 ± 2.1 µM with Caco-2; 5.95 ± 0.2 µM with A549; 6.4 ± 0.7 µM with HeLa; 10.1 ± 6.2 µM in the data set with MCF10A; 62.9 ± 3.9 µM in the data set on MCF-7. Besides, the IC50 with HCT116 was determined as 5.8 ± 0.3 µM; in the data set on Cos-7, 7.15 ± 0.3 µM; in the data set with Jurkat, 6.1 ± 0.7 µM; in the data set with MDA-MB-231 it was 8.3 ± 3.2 µM.
As for `N.N.[Cl][Pt][Cl]` [CisPt, cis-platin, reference compound], the “reduction of cell growth” value in [1] is 39%.
`CC(C)(C)OC(=O)n1cc(CNC(=S)Nc2ccc(NC(=S)NCc3cn(C(=O)OC(C)(C)C)c4ccccc34)cc2)c2ccccc21` [Compound 48, N,N′-(1,4-phenylene)bis{N′-[1-(tert-butoxycarbonyl)indol-3-yl]methyl (thiourea)}] returned a melting point of 204 to 206 °C. Besides, the IC50 with BLM came out at 77.1 ± 4.3 µM. The molecule further came in with an IC50 with Caco-2 of 51.7 ± 4.1 µM. In addition, 73.1 ± 7.3 µM corresponded to half-maximal inhibition in the data set with A549 (IC50). In the data set with HeLa, this molecule had a half-inhibitory concentration (IC50) of 65.3 ± 5.3 µM. In addition, half-maximal inhibition in the data set with MCF10A (IC50) was put at 67.3 ± 1.9 µM. Also, the concentration for half-maximal inhibition (IC50) in the data set with MCF-7 amounted to 77 ± 2.1 µM. This molecule also returned a concentration for half-maximal inhibition (IC50) in the data set on HCT116 of 51.9 ± 4.7 µM. Further, in the data set on Cos-7, the IC50 came out at 78.3 ± 2.6 µM. Further, the IC50 in the data set with Jurkat was 38.8 ± 2.9 µM. Further, in the data set with MDA-MB-231, the half-inhibitory concentration (IC50) was found to be 46 ± 2.5 µM.
Molecule `CC(C)(C)OC(=O)n1cc(CN2C(=O)CSC2=Nc2ccc(N=C3SCC(=O)N3Cc3cn(C(=O)OC(C)(C)C)c4ccccc34)cc2)c2ccccc21` [Compound 51a, 2,2′-[1,4-phenylenebis(azanylylidene)]bis{3-[(1-(tert-butoxycarbonyl)-indol-3-yl)methyl]-1,3-thiazolidin-4-one}] returned a melting point of 196 to 198 °C. The same molecule gave a half-maximal inhibitory concentration (IC50) with BLM greater than 100 µM. In the data set with Caco-2, this molecule displayed an IC50 greater than 100 µM. This molecule also showed a half-inhibitory concentration (IC50) in the data set with A549 of 93.8 ± 1 µM. The IC50 in the data set with HeLa is greater than 100 µM. Moreover, the 50% inhibitory concentration (IC50) in the data set with MCF10A was greater than 100 µM. In the data set on MCF-7, this molecule returned a half-inhibitory concentration (IC50) greater than 100 µM. The molecule also showed an IC50 in the data set with HCT116 of 97.7 ± 3.2 µM. Moreover, the IC50 in the data set with Cos-7 is greater than 100 µM. Moreover, the IC50 with Jurkat is greater than 100 µM. Besides, the IC50 in the data set on MDA-MB-231 was greater than 100 µM.
